Experimental data from paper PMC5132016 (Clinical Pharmacology in Drug Development, 2016).

Columns and labels:
[1] = Single-dose pharmacokinetics of EE and LN; format: in vivo, human; conditions: for Tmax: single oral Microgynon 30 alone, median (range), n = 19
[2] = cited from earlier work
[3] = tofacitinib 30 mg twice daily; cited from earlier work
[4] = female, human, plasma, oral, adjusted geometric mean, Reference (Microgynon 30 alone)
[5] = tofacitinib 30 mg twice daily vs Microgynon 30 alone
[6] = Microgynon 30 + tofacitinib / Microgynon 30 alone

## C#C[C@]1(O)CC[C@H]2[C@@H]3CCc4cc(O)ccc4[C@H]3CC[C@@]21C [Ethinylestradiol, ethinylestradiol]
[1]; [4]
  AUC(0-inf): 0.716 ng·h/mL
[1]
  Tmax: 1.5 (1.0–2.1) h
[1]; [5]
  Decrease of maximal plasma concentration when coadministered with tofacitinib: 10.4%
  Increase of AUC∞ in the presence of tofacitinib: 6.6%

## C#C[C@]1(O)CC[C@H]2[C@@H]3CCC4=CC(=O)CC[C@@H]4[C@H]3CC[C@@]21CC [Levonorgestrel, levonorgestrel]
[1]; [6]
  Ratio (Test/Reference) of adjusted geometric means, AUClast: 104.60%
  Ratio (Test/Reference) of adjusted geometric means, AUC∞: 100.87%
  Ratio (Test/Reference) of adjusted geometric means, Cmax: 112.19%
[1]; female, human, plasma, oral, AUClast, adjusted geometric mean, Reference (Microgynon 30 alone)
  AUC(0-t): 35 ng·h/mL
[1]; [4]
  AUC(0-inf): 44.6 ng·h/mL
[1]; female, human, plasma, oral, Cmax, adjusted geometric mean, Reference (Microgynon 30 alone)
  Cmax: 3.78 ng/mL
[1]
  Tmax: 1.0 (1.0–2.0) h
[1]; [5]
  Increase of AUC∞ in the presence of tofacitinib: 0.9%
  Increase of maximal plasma concentration when coadministered with tofacitinib: 12.2%

## C[C@@H]1CCN(C(=O)CC#N)C[C@@H]1N(C)c1ncnc2[nH]ccc12 [Tofacitinib]
[1]; tofacitinib 30 mg twice daily for 11 days, healthy women
  Effect on the pharmacokinetics of EE and LN: no clinically relevant net inhibitory or inductive effect
[2]
  Nonrenal share of clearance: 70%
  Renally excreted share of clearance: 30%
  Share of metabolism by CYP3A4: approximately 55%

## Cc1ncc2n1-c1ccc(Cl)cc1C(c1ccccc1F)=NC2 [midazolam]
[3]
  Change in Cmax when coadministered with tofacitinib: no change
  Change in total exposure (AUC∞) when coadministered with tofacitinib: no change
